Earlier results, collected in patent US20180235982A1, “Treatment for Spirochete borne illness” (priority 2017, published 2018).

Conditions: no species, matrix or method given

Q: For `CN(C)c1ccc(O)c2c1C[C@H]1C[C@H]3[C@H](N(C)C)C(O)=C(C(N)=O)C(=O)[C@@]3(O)C(O)=C1C2=O` [Minocycline], which half-life is on record?
A: 12 to 14 h
